Consider 5 compounds from patent publication US20230414598A1, “COMBINATION THERAPIES WITH CBL-B INHIBITOR COMPOUNDS AND ANTIEMETIC AGENTS” (NURIX THERAPEUTICS, INC., priority 2022, published 2023).

Type in all cases: in vivo, human
The test system of series [1] is patient's nausea and vomiting symptoms. Nature of the series: Antiemetic given prior to compound 23: control of nausea and vomiting. To be noted: for effect on emetic symptoms (nausea and vomiting): single oral dose 30-60 minutes prior to compound 23 dosing.
Protocol: Prior to administration of compound 23, the antiemetic was administered as outlined below. Example 1: ondansetron via IV: 8 mg or 0.15 mg/kg as single dose; maximum dose of 16 mg/dose. Example 1B: ondansetron via oral: 8 mg up to twice daily. In this example, the patient was weaned off ondansetron via oral after two weeks. […] Example 2: granisetron via IV: 1 mg or 10 mcg/kg as a single dose. Example 2B granisetron via oral: 2 mg as a single dose. In this example, the patient was weaned off oral granisetron after four weeks. […] Example 2C: granisetron via SUBQ: 10 mg as single dose. Example 2D: granisetron via transdermal: apply one patch. Example 5: metoclopramide, a dopamine antagonist, via oral: 10 mg 30 minutes prior to the adminstration of compound 23. […] Example 6: diphenhydramine, a histamine antagonist, via oral or parental: 25 mg or 50 mg 30 minutes prior to the adminstration of compound 23.
In series [2] the test system is 5-HT. Nature of the series: 5-HT levels in the local gut after compound 23. To be noted: after administration of compound 23.
Series [3] is described as follows: Pharmacokinetic analysis of compound 23 plasma concentrations in patients (LC-MS/MS, non-compartmental). The settings on record: for AUC(0-t) / Cmax / half-life / Tmax: human, plasma; for AUC(0-t) / Cmax: geometric mean; for half-life: mean; for Tmax: median. As for the experimental part:
Patients were administered doses of compound 23 ranging from 5 to 50 mg once daily. Plasma concentrations of compound 23 were quantified using acetonitrile precipitation and LC-MS/MS. The peak area of the product ion of the analyte was measured against the peak area of the product ion of the stable label internal standard. A calibration curve spanning the curve range and containing at least six conentrations in duplicate was used to quantify the analyte concentration. The retention times of the analyte and internal standard are approximately 1.5 minutes. PK analyses were donucted using non-compartmental analyses to obtain PK parameters. […] Patients were administered doses of compound 23 ranging from 5 to 50 mg once daily. Plasma concentrations of compound 23 were quantified using acetonitrile precipitation and LC-MS/MS. The peak area of the product ion of the analyte was measured against the peak area of the product ion of the stable label internal standard. A calibration curve spanning the curve range and containing at least six conentrations in duplicate was used to quantify the analyte concentration. The retention times of the analyte and internal standard are approximately 1.5 minutes. PK analyses were donucted using non-compartmental analyses to obtain PK parameters. […] PK data are provided below (Cmax and AUC0-last are presented as geometric mean (geometric %C V); Tmax is presented as median (range); t1/2 is presented as mean (% CV).

A short description of series [4]: Adverse events after oral administration of compound 23 to patients. The procedure: The nausea and vomiting symptoms were mitigated when a single oral (versus other routes of adminstration such as intravenous) dose of 5-HT3 antagonist was administered 30-60 minutes prior to the compound 23 dosing. […] The adverse events (e.g., symptoms include nausea, vomiting, headache, hypotension, tachycardia, bradycardia, among others) were resolved within 24 hours prior to the next dose. The nausea and vomiting were controlled by serotonin (5-HT3) receptor blockers, ondansetron and granisetron.

[5] abbreviates: Cycle 1 Day 1, 5 mg once daily (n = 1).
The mark [6] stands for this setting: Cycle 1 Day 1, 15 mg once daily (n = 9).
The mark [7] stands for this setting: Cycle 1 Day 1, 25 mg once daily (n = 6).
The mark [8] stands for this setting: Cycle 1 Day 1, 50 mg once daily (n = 2).
The mark [9] stands for this setting: 25 mg and 50 mg single daily dose administered fasting.

The structures appear in SMILES notation.

With `CCN(CC)CCNC(=O)c1cc(Cl)c(N)cc1OC` [metoclopramide], the “control of nausea and vomiting symptoms” value in series [1] (oral 10 mg 30 minutes prior to compound 23) is “did not control the patient's nausea and vomiting sympotms”.
`C[C@H]1CCCN(Cc2cc3c(c(C(F)(F)F)c2)CN(c2cccc([C@]4(c5nncn5C)C[C@@H](C)C4)c2)C3=O)C1` [Compound 23]: the “levels of 5-HT in the local gut” value in series [2] is given as “increased levels of 5-HT in the local gut”. For the same compound, in series [3] (5 to 50 mg once daily), the “accumulation upon repeat daily dosing” value is “no accumulation” and the “dose proportionality of exposures” value is “dose-proportional increase in exposures”. Also, in series [3] (setting [5]), the AUC(0-t) (usually exposure summed from dosing to a finite time, without extrapolation to infinity) is 26.2 ng·h/mL; the Cmax (as a rule, the peak of the concentration-time curve) was 4.35 ng/mL; the half-life (in general, the time needed for the level to fall by half in the phase considered) is 7.72 h; the Tmax (as a rule, the time at which the peak concentration occurs) was 2 h. In addition, in series [3] (setting [6]), the AUC(0-t) came to 129 ng·h/mL, the peak concentration (Cmax) turned out to be 16.2 ng/mL, the half-life was 7.14 h and the Tmax stood at 2 h. In addition, in series [3] (setting [7]), the exposure AUC(0-t) was 201 ng·h/mL, the peak concentration (Cmax) amounted to 30.1 ng/mL, the half-life was 6.82 h and the Tmax worked out at 1.5 h. Also, in series [3] (setting [8]), the AUC(0-t) amounted to 502 ng·h/mL, the highest level (Cmax) was 79.2 ng/mL, the half-life is 5.88 h and the time to peak (Tmax) was 2.5 h. Moreover, the “need for antiemetic after weaning” value in series [1] (daily compound 23 after patient weaned off oral granisetron after four weeks) was “without the need for granisetron”. The “need for antiemetic after weaning” value in series [1] (daily compound 23 after patient weaned off oral ondansetron after two weeks) is listed as “without the need for ondanesetron”. Also, in series [4] (setting [9]), the adverse events induced entry is “signficant events of nausea, vomiting, synocope, tachycardia, hypotension, and bradycardia”; the “time to onset of adverse events” value is no more than 2 h. For the same compound, in series [4] (nausea, vomiting, headache, hypotension, tachycardia, bradycardia, prior to the next dose), the “time to resolution of adverse events” value is no more than 24 h.
For the compound `CN1C2CCCC1CC(NC(=O)c1nn(C)c3ccccc13)C2` (stereo not shown) [granisetron], the “effect on emetic symptoms (nausea and vomiting)” value in series [1] is given as “reduced emetic symptoms”.
As for `Cc1nccn1CC1CCc2c(c3ccccc3n2C)C1=O` (stereo not shown) [ondansetron], the “effect on emetic symptoms (nausea and vomiting)” value in series [1] is “reduced emetic symptoms”.
Regarding `CN(C)CCOC(c1ccccc1)c1ccccc1` [diphenhydramine], in series [1] (oral or parenteral 25 mg or 50 mg 30 minutes prior to compound 23), the “control of nausea and vomiting symptoms” value was “did not control the patient's nausea and vomiting sympotms”.
